From ChEMBL document CHEMBL1148929, “Phytochemical studies on Stemona burkillii prain: two new dihydrostemofoline alkaloids” (J Nat Prod, 2004)

Experiments:
[1] = test system: Cladosporium cladosporioides; test: Antifungal activity against Cladosporium cladosporioides assessed as inhibition of spore germination; format: functional, organism-based
Artemia = test: Toxicity to brine shrimp; format: organism-based; conditions: in vivo

With CC[C@H](O)C[C@@]12[C@@H]3C[C@H]4[C@H]5[C@H](C)/C(=C6/OC(=O)C(C)=C6OC)O[C@]5(O3)[C@H]1CCN42 [2'-HYDROXYSTEMOFOLINE] the EC50 [1] was greater than 219 ppm and the LC50 (Artemia) was greater than 33 ppm.
CCCC[C@@]12C3CCN1[C@H]1C[C@H]2O[C@@]32O/C(=C3\OC(=O)C(C)=C3OC)[C@@H](C)[C@H]12 [STEMOFOLINE] was tested, and the EC50 [1] was greater than 219 ppm and the LC50 (Artemia) was greater than 33 ppm.
